# Test results published in PubChem BioAssay (NCI).
#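 Following 48 hours of exposure in 96-well plates, responses at five concentrations were used to interpolate endpoints linearly. TGI denotes the concentration required for complete inhibition of growth.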 Starred links: 1 amine or outer side, 2 acyl side, 3 side chain; linkers in the order of their positions; H or OH if unused. Positions of bridges follow the written chain, without caps; N, C: chain ends. Non-standard residues stand in square brackets, D forms with d. Residues, ends and D or L forms follow the SMILES beside them. *: point of attachment. X3 = CC(C)C(C)C(C(=O)[*:2])N(C)[*:1]; Picolinoyl(3-OH) = O=C(c1ncccc1O)*; NMePhg = CN[CH](C(=O)O)c1ccccc1; Hyp = O=C(O)[CH]1C[CH](O)CN1; Sar = CNCC(=O)O
# Tests used:
# Assay in all cases: NCI tumour cell line growth inhibition, 48 h
# DLD-1 colon = system: DLD-1 colon
# DMS 114 small cell lung = system: DMS 114 small cell lung
# DMS 273 small cell lung = system: DMS 273 small cell lung
# HOP-18 NSCLC = system: HOP-18 NSCLC
# HOP-92 NSCLC = system: HOP-92 NSCLC
# KM20L2 colon = system: KM20L2 colon
# M19-MEL melanoma = system: M19-MEL melanoma
# NCI-H226 lung = system: NCI-H226 lung
# NCI-H23 lung = system: NCI-H23 lung
# P388/ADR leukemia = system: P388/ADR leukemia
# SN12K1 renal = system: SN12K1 renal
# SNB-78 CNS = system: SNB-78 CNS
# UACC-257 melanoma = system: UACC-257 melanoma
# XF 498 CNS = system: XF 498 CNS
# A498 renal = system: A498 renal
# A549 NSCLC = system: A549 NSCLC
# ACHN renal = system: ACHN renal
# CAKI-1 renal = system: CAKI-1 renal
# CCRF-CEM leukemia = system: CCRF-CEM leukemia
# COLO 205 colon = system: COLO 205 colon
# EKVX NSCLC = system: EKVX NSCLC
# HCC-2998 colon = system: HCC-2998 colon
# HCT-116 colon = system: HCT-116 colon
# HCT-15 colon = system: HCT-15 colon
# HOP-62 NSCLC = system: HOP-62 NSCLC
# HT29 colon = system: HT29 colon
# IGROV1 ovarian = system: IGROV1 ovarian
# KM12 colon = system: KM12 colon
# LOX IMVI melanoma = system: LOX IMVI melanoma
# LXFL 529 NSCLC = system: LXFL 529 NSCLC
# M14 melanoma = system: M14 melanoma
# MALME-3M melanoma = system: MALME-3M melanoma
# NCI-H460 lung = system: NCI-H460 lung
# NCI-H522 lung = system: NCI-H522 lung
# OVCAR-3 ovarian = system: OVCAR-3 ovarian
# OVCAR-4 ovarian = system: OVCAR-4 ovarian
# OVCAR-5 ovarian = system: OVCAR-5 ovarian
# OVCAR-8 ovarian = system: OVCAR-8 ovarian
# RXF 393 renal = system: RXF 393 renal
# SF-268 CNS = system: SF-268 CNS
# SF-295 CNS = system: SF-295 CNS
# SF-539 CNS = system: SF-539 CNS
# SK-MEL-2 melanoma = system: SK-MEL-2 melanoma
# SK-MEL-28 melanoma = system: SK-MEL-28 melanoma
# SK-MEL-5 melanoma = system: SK-MEL-5 melanoma
# SK-OV-3 ovarian = system: SK-OV-3 ovarian
# SN12C renal = system: SN12C renal
# SNB-19 CNS = system: SNB-19 CNS
# SNB-75 CNS = system: SNB-75 CNS
# SR leukemia = system: SR leukemia
# SW-620 colon = system: SW-620 colon
# TK-10 renal = system: TK-10 renal
# U251 CNS = system: U251 CNS
# UACC-62 melanoma = system: UACC-62 melanoma
# UO-31 renal = system: UO-31 renal
# 786-0 renal = system: 786-0 renal
# HL-60(TB) leukemia = system: HL-60(TB) leukemia
# K-562 leukemia = system: K-562 leukemia
# MOLT-4 leukemia = system: MOLT-4 leukemia
# RPMI-8226 leukemia = system: RPMI-8226 leukemia
# MCF7 breast = system: MCF7 breast
# NCI/ADR-RES ovarian = system: NCI/ADR-RES ovarian
# P388 leukemia = system: P388 leukemia
smiles,measurement,setting,value
CC(C)CC1NC(=O)C(NC(=O)c2ncccc2O)C(C)OC(=O)C(c2ccccc2)N(C)C(=O)C(C)NC(=O)C(C(C)C(C)C)N(C)C(=O)CN(C)C(=O)C2CC(O)CN2C1=O (stereo not given) ({Picolinoyl(3-OH)}-TL[Hyp][Sar][X3]A[NMePhg]; ester 1-C; configuration not given here),TGI,DLD-1 colon,> 125 µM
same,TGI,DMS 114 small cell lung,> 125 µM
same,TGI,DMS 273 small cell lung,> 125 µM
same,TGI,HOP-18 NSCLC,> 125 µM
same,TGI,HOP-92 NSCLC,> 125 µM
same,TGI,KM20L2 colon,> 12.5 µM
same,TGI,M19-MEL melanoma,> 125 µM
same,TGI,NCI-H226 lung,> 125 µM
same,TGI,NCI-H23 lung,> 125 µM
same,TGI,P388/ADR leukemia,> 125 µM
same,TGI,SN12K1 renal,> 125 µM
same,TGI,SNB-78 CNS,> 125 µM
same,TGI,UACC-257 melanoma,> 125 µM
same,TGI,XF 498 CNS,> 120 µM
C=C1C(=O)OC2C[C@@]3(C)CCCC(=C)C3CC12 (stereo not given in full),TGI,A498 renal,19.2 µM
same,TGI,A549 NSCLC,27.7 µM
same,TGI,ACHN renal,26.9 µM
same,TGI,CAKI-1 renal,19.4 µM
same,TGI,CCRF-CEM leukemia,> 100 µM
same,TGI,COLO 205 colon,6.85 µM
same,TGI,DLD-1 colon,14.7 µM
same,TGI,DMS 114 small cell lung,29.8 µM
same,TGI,DMS 273 small cell lung,10.7 µM
same,TGI,EKVX NSCLC,31.5 µM
same,TGI,HCC-2998 colon,26.7 µM
same,TGI,HCT-116 colon,15.2 µM
same,TGI,HCT-15 colon,24.7 µM
same,TGI,HOP-18 NSCLC,31.3 µM
same,TGI,HOP-62 NSCLC,34.9 µM
same,TGI,HOP-92 NSCLC,14.6 µM
same,TGI,HT29 colon,24 µM
same,TGI,IGROV1 ovarian,33.3 µM
same,TGI,KM12 colon,5.94 µM
same,TGI,KM20L2 colon,25.9 µM
same,TGI,LOX IMVI melanoma,2.59 µM
same,TGI,LXFL 529 NSCLC,11.8 µM
same,TGI,M14 melanoma,20.6 µM
same,TGI,MALME-3M melanoma,13.4 µM
same,TGI,NCI-H226 lung,26 µM
same,TGI,NCI-H23 lung,26.9 µM
same,TGI,NCI-H460 lung,18.1 µM
same,TGI,NCI-H522 lung,3.65 µM
same,TGI,OVCAR-3 ovarian,22.6 µM
same,TGI,OVCAR-4 ovarian,26.6 µM
same,TGI,OVCAR-5 ovarian,33.6 µM
same,TGI,OVCAR-8 ovarian,24.6 µM
same,TGI,RXF 393 renal,10.5 µM
same,TGI,SF-268 CNS,28.2 µM
same,TGI,SF-295 CNS,23.6 µM
same,TGI,SF-539 CNS,3.7 µM
same,TGI,SK-MEL-2 melanoma,12.7 µM
same,TGI,SK-MEL-28 melanoma,24 µM
same,TGI,SK-MEL-5 melanoma,20.4 µM
same,TGI,SK-OV-3 ovarian,33.7 µM
same,TGI,SN12C renal,16.7 µM
same,TGI,SNB-19 CNS,23.4 µM
same,TGI,SNB-75 CNS,20.1 µM
same,TGI,SNB-78 CNS,13.5 µM
same,TGI,SR leukemia,> 100 µM
same,TGI,SW-620 colon,14.4 µM
same,TGI,TK-10 renal,23.5 µM
same,TGI,U251 CNS,21.7 µM
same,TGI,UACC-257 melanoma,22 µM
same,TGI,UACC-62 melanoma,18.1 µM
same,TGI,UO-31 renal,17.1 µM
same,TGI,XF 498 CNS,13.5 µM
C/C(N=NS(=O)(=O)c1c(C)cc(C)cc1C)=C1\C=CC=CN1O,TGI,786-0 renal,> 100 µM
same,TGI,A498 renal,> 100 µM
same,TGI,A549 NSCLC,> 100 µM
same,TGI,ACHN renal,> 100 µM
same,TGI,CAKI-1 renal,> 100 µM
same,TGI,CCRF-CEM leukemia,> 100 µM
same,TGI,DLD-1 colon,> 100 µM
same,TGI,DMS 114 small cell lung,> 100 µM
same,TGI,DMS 273 small cell lung,> 100 µM
same,TGI,EKVX NSCLC,> 100 µM
same,TGI,HCC-2998 colon,> 100 µM
same,TGI,HCT-116 colon,> 100 µM
same,TGI,HCT-15 colon,> 100 µM
same,TGI,HL-60(TB) leukemia,> 100 µM
same,TGI,HOP-18 NSCLC,> 100 µM
same,TGI,HOP-62 NSCLC,> 100 µM
same,TGI,HOP-92 NSCLC,> 100 µM
same,TGI,HT29 colon,> 100 µM
same,TGI,IGROV1 ovarian,> 100 µM
same,TGI,K-562 leukemia,> 100 µM
same,TGI,KM12 colon,> 100 µM
same,TGI,KM20L2 colon,> 100 µM
same,TGI,LXFL 529 NSCLC,> 100 µM
same,TGI,M14 melanoma,> 100 µM
same,TGI,M19-MEL melanoma,> 100 µM
same,TGI,MOLT-4 leukemia,> 100 µM
same,TGI,NCI-H23 lung,> 100 µM
same,TGI,NCI-H460 lung,> 100 µM
same,TGI,NCI-H522 lung,> 100 µM
same,TGI,OVCAR-3 ovarian,> 100 µM
same,TGI,OVCAR-4 ovarian,> 100 µM
same,TGI,OVCAR-5 ovarian,> 100 µM
same,TGI,OVCAR-8 ovarian,> 100 µM
same,TGI,RPMI-8226 leukemia,> 100 µM
same,TGI,SF-268 CNS,> 100 µM
same,TGI,SF-295 CNS,> 100 µM
same,TGI,SF-539 CNS,> 100 µM
same,TGI,SK-MEL-28 melanoma,> 100 µM
same,TGI,SK-MEL-5 melanoma,> 100 µM
same,TGI,SK-OV-3 ovarian,> 100 µM
same,TGI,SN12C renal,> 100 µM
same,TGI,SNB-19 CNS,> 100 µM
same,TGI,SNB-75 CNS,> 100 µM
same,TGI,SNB-78 CNS,> 100 µM
same,TGI,SR leukemia,> 100 µM
same,TGI,SW-620 colon,> 100 µM
same,TGI,TK-10 renal,> 100 µM
same,TGI,U251 CNS,> 100 µM
same,TGI,UACC-257 melanoma,> 100 µM
same,TGI,UACC-62 melanoma,> 100 µM
same,TGI,UO-31 renal,> 100 µM
same,TGI,XF 498 CNS,> 100 µM
NCCCNCCSP(=O)(O)O,TGI,A498 renal,> 75 µM
same,TGI,A549 NSCLC,> 750 µM
same,TGI,CAKI-1 renal,> 750 µM
same,TGI,CCRF-CEM leukemia,> 750 µM
same,TGI,COLO 205 colon,> 657 µM
same,TGI,DLD-1 colon,> 750 µM
same,TGI,DMS 114 small cell lung,> 750 µM
same,TGI,DMS 273 small cell lung,> 750 µM
same,TGI,EKVX NSCLC,> 750 µM
same,TGI,HCC-2998 colon,> 750 µM
same,TGI,HCT-116 colon,> 750 µM
same,TGI,HCT-15 colon,> 645 µM
same,TGI,HL-60(TB) leukemia,> 721 µM
same,TGI,HOP-18 NSCLC,> 750 µM
same,TGI,HOP-62 NSCLC,> 750 µM
same,TGI,HOP-92 NSCLC,> 750 µM
same,TGI,HT29 colon,> 750 µM
same,TGI,IGROV1 ovarian,> 750 µM
same,TGI,K-562 leukemia,> 750 µM
same,TGI,KM12 colon,> 750 µM
same,TGI,KM20L2 colon,> 750 µM
same,TGI,LOX IMVI melanoma,> 750 µM
same,TGI,M19-MEL melanoma,> 750 µM
same,TGI,MALME-3M melanoma,> 726 µM
same,TGI,MCF7 breast,> 750 µM
same,TGI,MOLT-4 leukemia,> 750 µM
same,TGI,NCI-H226 lung,> 750 µM
same,TGI,NCI-H23 lung,> 750 µM
same,TGI,NCI-H460 lung,> 750 µM
same,TGI,NCI-H522 lung,738 µM
same,TGI,NCI/ADR-RES ovarian,> 750 µM
same,TGI,OVCAR-3 ovarian,> 750 µM
same,TGI,OVCAR-4 ovarian,> 750 µM
same,TGI,OVCAR-5 ovarian,> 750 µM
same,TGI,OVCAR-8 ovarian,> 511 µM
same,TGI,P388 leukemia,> 750 µM
same,TGI,P388/ADR leukemia,> 750 µM
same,TGI,RPMI-8226 leukemia,> 750 µM
same,TGI,RXF 393 renal,> 750 µM
same,TGI,SF-268 CNS,> 750 µM
same,TGI,SF-295 CNS,> 750 µM
same,TGI,SF-539 CNS,> 750 µM
same,TGI,SK-MEL-2 melanoma,> 700 µM
same,TGI,SK-MEL-28 melanoma,> 750 µM
same,TGI,SK-MEL-5 melanoma,> 750 µM
same,TGI,SK-OV-3 ovarian,> 750 µM
same,TGI,SN12C renal,> 750 µM
same,TGI,SN12K1 renal,> 750 µM
same,TGI,SNB-19 CNS,> 750 µM
same,TGI,SNB-75 CNS,> 750 µM
same,TGI,SNB-78 CNS,> 750 µM
same,TGI,SW-620 colon,> 750 µM
same,TGI,U251 CNS,> 750 µM
same,TGI,UACC-257 melanoma,> 750 µM
same,TGI,UACC-62 melanoma,> 750 µM
same,TGI,UO-31 renal,> 750 µM
same,TGI,XF 498 CNS,> 422 µM
